PubChem BioAssay (NCI)
“And” between values parts separate entries of the source, which are not always exact repeats. Equal values may be shown once.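 Five compound concentrations were applied to cells in 96-well plates for 48 hours; endpoints were derived by simple linear interpolation of the resulting dose-response curve. At the GI50, growth is halved. TGI marks complete inhibition of growth.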

How the values were obtained:
Experiment in all cases: inhibition of tumour cell growth, NCI panel, 48 h
IGROV1 ovarian = tested on: IGROV1 ovarian
DU-145 prostate = tested on: DU-145 prostate
CAKI-1 renal = tested on: CAKI-1 renal
NCI-H522 lung = tested on: NCI-H522 lung
ACHN renal = tested on: ACHN renal
HCT-15 colon = tested on: HCT-15 colon
U251 CNS = tested on: U251 CNS
SF-295 CNS = tested on: SF-295 CNS
COLO 205 colon = tested on: COLO 205 colon
SNB-75 CNS = tested on: SNB-75 CNS

Structure (SMILES) | GI50 (IGROV1 ovarian) | TGI (DU-145 prostate) [µM] | GI50 (CAKI-1 renal) [µM] | TGI (CAKI-1 renal) | GI50 (NCI-H522 lung) | TGI (NCI-H522 lung) | TGI (ACHN renal) [µM] | GI50 (HCT-15 colon) | TGI (HCT-15 colon) [µM] | GI50 (U251 CNS) | TGI (U251 CNS) [µM] | GI50 (SF-295 CNS) | TGI (SF-295 CNS) [µM] | GI50 (COLO 205 colon) [µM] | TGI (COLO 205 colon) [µM] | GI50 (SNB-75 CNS) [µM] | TGI (SNB-75 CNS) [µM] | TGI (IGROV1 ovarian) [µM] | GI50 (DU-145 prostate) | GI50 (ACHN renal)
O=C1NC2(CCCCC2)C(=O)N1CCN(CCCl)CCCl | 17.7 µM | > 25 | 19.5 | 25 µM and 175 µM | > 25 µM | > 25 µM and 163 µM | 25 | > 25 µM and 200 µM | > 242 | > 25 µM | > 250 | > 25 µM and 138 µM | > 250 | > 25 | > 250 | > 25 | > 250 | – | – | –
Cc1ccc(Cl)c(NS(=O)(=O)c2ccc(-c3cnc(C4CC4)o3)cc2)c1 | 0.129 µM | > 100 | 0.0531 | 10.1 µM | 0.0566 µM | 20.3 µM | > 72.7 | 0.055 µM | 18.2 | 0.142 µM | 26.5 | 0.0377 µM | 0.182 | 0.154 | 1.36 | 0.0232 | 0.164 | > 100 | 0.288 µM | 0.205 µM
Nc1ncc(-c2ccc3ncnc(N4CCc5ccc(Cl)cc54)c3c2)cc1C(F)(F)F | 0.188 µM | 18.2 | 0.457 | 5.56 µM | 1.76 µM | 17.9 µM | 13.2 | 1.3 µM | 22.6 | 2.65 µM | 16.6 | 1.4 µM | 16.5 | 3.68 | 30.5 | 0.113 | 1.64 | 0.964 | 1.43 µM | 0.569 µM
COc1ccccc1/C=C\C(=O)C1COCN1 (configuration not stated) | – | 35.6 | – | 42.2 µM | – | 36.1 µM | 26.3 | – | 35.8 | – | 28.1 | – | 50.8 | – | 33.2 | – | 41.3 | 64.6 | – | –
COc1cc2c(c(OC)c1OC)-c1ccc(SC)c(=O)cc1[C@@H](NC(=O)C(F)(F)F)CC2 | – | > 100 | – | 10.3 µM | – | < 0.01 µM | > 72.3 | – | > 15.8 | – | 56.3 | – | < 0.01 | – | < 0.0631 | – | 6.29 | > 100 | – | –
Cc1nc2sc3c(N)ncnc3c2c(C)c1C | > 25 µM | > 25 | > 25 | > 25 µM | > 25 µM | > 25 µM | > 25 | > 25 µM | > 25 | > 25 µM | > 25 | > 25 µM | > 25 | > 25 | > 25 | > 25 | > 25 | > 25 | > 25 µM | > 25 µM
CCN(CC)CCN1c2nc3ccccc3cc2Sc2cc3ccccc3nc21 | 0.473 µM | 11.3 | 1.8 | 6.11 µM | 1.65 µM | 4.1 µM | 9.29 | 1.58 µM | 3.76 | 1.95 µM | 4.48 | 1.56 µM | 3.45 | 1.35 | 2.85 | 1.32 | 6.22 | 2.48 | 3.59 µM | 2.58 µM
CCOc1ccc(C(C[N+](=O)[O-])Sc2ccccc2N)cc1 (configuration not stated) | 3.33 µM | 15 | 12.9 | 25.6 µM | 11.8 µM | 24.9 µM | 23.1 | 2.01 µM | 4.75 | 2.96 µM | 10.6 | 4.39 µM | 17.3 | 4.74 | 16.8 | 2.8 | 17.4 | 13.2 | 4.17 µM | 11.1 µM
CCN(CC)c1ccc(-c2cc(-c3cc(OC)c(OC)c(OC)c3)nc(N3CCC(O)CC3)c2C#N)cc1 | 0.373 µM | 14.6 | 0.0334 | 0.708 µM | – | – | > 42.5 | 0.26 µM | 1.93 | 0.398 µM | 1.8 | 0.169 µM | 0.435 | 0.488 | 2.11 | 0.321 | 3.04 | > 27.7 | 0.877 µM | 0.406 µM
COc1ccccc1[As]=[As]c1ccccc1OC (configuration not stated) | 0.0414 µM | 0.173 | 0.066 | 0.202 µM | 0.0165 µM | 0.0376 µM | 0.186 | 0.0288 µM | 0.118 | 0.0145 µM | 0.0311 | 0.104 µM | 0.264 | 0.0209 | 0.0475 | 0.0305 | 0.13 | 0.209 | 0.0542 µM | 0.0613 µM
N#Cc1nc(C#N)c(Sc2ccccc2)c(Sc2ccccc2)c1Sc1ccccc1 | 0.732 µM | 2.88 | 1.22 | > 100 µM | 0.208 µM | 0.645 µM | 1.79 | 0.574 µM | 3.21 | 0.51 µM | 1.86 | 2.75 µM | > 29.1 | 0.719 | 2.03 | 2.42 | > 29.3 | 2.3 | 0.667 µM | 0.395 µM
NCCCNc1nc2ccccc2c2c(=O)c3cccc(Cl)c3sc12 | – | 3.46 | 1.28 | 2.68 µM | 1.76 µM | 3.6 µM | 2.79 | 1.64 µM | 3.16 | – | – | 1.71 µM | 3.14 | – | – | 1.34 | 2.69 | – | 1.74 µM | 1.41 µM
CNC(=O)c1c(F)cccc1Nc1nc(Nc2cc3c(cc2OC)CCN3C(=O)CN(C)C)nc2[nH]ccc12 | 17.5 µM | 24.9 | 16.1 | 45.7 µM | 1.56 µM | 3.63 µM | 23.1 | 3.08 µM | 19 | 2.39 µM | 6.61 | 19 µM | 38.2 | 0.151 | 3.48 | 11.7 | 24.7 | 43.1 | 7.37 µM | 8.8 µM
O=C1Nc2ccccc2/C1=C\c1nc(-c2ccccc2F)n2ccccc12 | 2.04 µM | 12.9 | – | – | 2.18 µM | 7.37 µM | 10.9 | 13 µM | > 100 | 2.57 µM | 6.1 | 3.68 µM | 13.7 | 4.08 | 14.9 | 1.79 | 4.95 | 12.5 | 3.26 µM | 3.3 µM
COS(C)(=O)=O | – | > 2 | – | > 2 µM | – | > 2 µM | > 2 | – | > 2 | – | > 2 | – | – | – | > 2 | – | > 2 | > 2 | – | –
O=C(Nc1cc(Cl)ccc1O)c1cccc(Nc2ccnc(C(F)(F)F)c2)c1 | 7.47 µM | 22.6 | 2.61 | 12.7 µM | – | – | 81.2 | 2.61 µM | 42.1 | 3.05 µM | 83.4 | 2.38 µM | 11.1 | 3.18 | 15 | 6.27 | 22.2 | 33.9 | 5.22 µM | 2.13 µM
O=C(Nc1cc(F)c(F)cc1C(=O)O)c1ccc(-n2ccnc2)nn1 | > 100 µM | > 100 | > 100 | > 100 µM | – | – | > 100 | > 100 µM | > 100 | > 100 µM | > 100 | > 100 µM | > 100 | > 100 | > 100 | > 100 | > 100 | > 100 | > 100 µM | > 100 µM
COc1cc2ncnc(Nc3ccc(Oc4ccnc(C)c4)c(C)c3)c2cc1NC(=O)CC1CCSS1 (configuration not stated) | 1.54 µM | 6.31 | 1.31 | > 14.5 µM | 0.861 µM | 2.19 µM | 8.48 | 1.04 µM | 2.31 | 1.15 µM | 2.81 | – | – | – | – | 1.41 | > 25.2 | > 50 | 1.44 µM | 1.49 µM
CCCc1nc(Cl)c(Cl)c(Cl)n1 | – | > 100 | – | 27.7 µM | – | 30.5 µM | – | – | > 63.7 | – | 30.1 | – | > 100 | – | > 100 | – | > 100 | 50.4 | – | –
Clc1ccc2c(c1)N(C1CCCN(Cc3ccccc3)C1)c1ccccc1S2 (configuration not stated) | – | 19.7 | 4.38 | 24 µM | 2.13 µM | 6.3 µM | > 100 | 4.12 µM | > 100 | 4.31 µM | > 100 | 2.44 µM | 6.82 | 2.9 | 10.1 | 4.11 | > 100 | – | 4.03 µM | 7.22 µM
CC[C@H](C)[C@H](NC(=O)[C@H]1CCCCN1C)C(=O)N(C)[C@H](C[C@@H](OC(C)=O)c1cccc(C(=O)N[C@@H](Cc2ccccc2)C[C@H](C)C(=O)O)n1)C(C)C | 0.0038 µM and 0.0025 µM | > 25 | – | – | 0.0005 µM and < 0.0025 µM | < 0.0025 µM | > 25 | 0.0064 µM and 0.0025 µM | > 25 | 0.000744 µM and 0.0025 µM | > 25 | 0.00275 µM and < 0.0025 µM | < 0.0025 | 0.00187 | 0.0143 | – | > 25 | > 25 | 0.00286 µM and 0.0025 µM | 0.00787 µM and 0.0025 µM
